In patent US9918999B2, “Method for preparing a medical solution for the manufacture of a medicament for peritoneal dialysis” (FRESENIUS MEDICAL CARE DEUTSCHLAND GMBH, priority 2002, dated 2018):

Assays:
[1] = system: human peritoneal mesothelial cells and fibroblasts; details: cited from earlier work
peritoneum = details: rats, chronic peritoneal dialysis; cited from earlier work
[2] = fluorescence of heat sterilised NAG containing solutions; assay type: physicochemical; details: terminally heat sterilised solution, excitation 350 nm, emission 430 nm, FIG. 3
Description: (§1) A simple, reliable and known way to study the cytotoxicity of substances or of medical fluids is to test proliferation as in vitro inhibition of cell growth (ICG) in cultured cells. Another method to get a rough estimation of the amount of amino sugars that is rearranged is measurement of the fluorescence.

[3] = degradation during heat sterilisation (pH change, HPLC of 3-DG and 3,4-DGE); assay type: physicochemical
Description: NAG and other amino sugars have a major difference from glucose and glucose-like compounds by having one amino group and possibly an acetyl group coupled to the glucose ring. […] It should be noted that the decomposition pattern for an amino sugar solution during heat sterilisation follows specific Maillard reactions giving several different toxic decomposition products. The decomposition pattern differs for e.g. a glucose solution during heat sterilisation, wherein different decomposition products are formed. This difference is illustrated in FIGS. 4a-4d, showing chromatograms when analysing 3-DG and 3,4-DGE in a NAG solution and in a glucose solution, respectively. The difference in degradation is likely due to that the NAG molecules contains groups that allows the Maillard reaction to take place and therefore create a large number of degradation products not seen in a glucose solution.

cultured cells = test: in vitro inhibition of cell growth (ICG) in cultured cells; assay type: cell-based
Description: Experiments in which measurements of the percentage of inhibition of cell growth (ICG) and fluorescence have been made at varying pH values and NAG concentrations during terminal heat sterilisation are illustrated in FIGS. 1-3. The results of the experiments imply that the pH of the amino sugar containing solution should be decreased from the neutral level and that, in a preferred embodiment of the invention, also the concentration of the amino sugar/sugars should be optimised.
as §1

Row | Compound | production of hyaluronan and sulphated glycosaminoglycans [1] | effect on the peritoneum of a supplemented dialysis solution (peritoneum) | pH at which the lowest fluorescence is seen [2] | change of pH of the solution during sterilisation [3] | known glucose degradation products in heat sterilised solution ([3]; heat sterilised NAG solutions) | percentage inhibition of cell growth, effect of NAG concentration (cultured cells; NAG 30% vs 1.5% during terminal heat sterilisation, all three pH values, FIG. 2) | cytotoxicity after heat sterilisation (cultured cells; conventional medical solutions) | pH of sterilisation at which inhibition of cell growth reaches a minimum (cultured cells; solution containing 1.5% NAG, FIG. 1) | percentage inhibition of cell growth, effect of pH (cultured cells; terminal heat sterilisation at pH 3.0, 5.5 and 7.2, FIG. 2)
1 | CC(=O)N[C@H]1C(O)O[C@H](CO)[C@@H](O)[C@@H]1O (stereo partly shown) [NAG, N-acetylglucosamine] | rapidly stimulates the production of hyaluronan and sulphated glycosaminoglycans | causes accumulation of glucosaminoglycans in the peritoneal interstitium, resulting in a favorable change of the peritoneal permeability | ~4 | increases during sterilisation | none of the known glucose degradation products has been found | lower after a terminal heat sterilisation at a NAG concentration of 30% than at a NAG concentration of 1.5% | increased cytotoxicity after heat sterilisation | 2.5-3.5 | lower after terminal heat sterilisation at a pH of 3.0 than at a pH of 5.5 and 7.2
2 | hyaluronan [reference compound] | – | function of the peritoneum as a dialysis membrane is better preserved | – | – | – | – | – | – | –
